Test results from patent US10399971B2, “Compound for treating or preventing hyperuricemia or gout” (JIANGSU ATOM BIOSCIENCE AND PHARMACEUTICAL CO., LTD., priority 2015, dated 2019).
Where “and” joins values, the source holds several entries; their conditions need not be identical. Equal entries are not always repeated. Where two headings read alike, the source gives them in different places.

Experiments:
[1] = Pharmacokinetics following intravenous and oral administration in SD rats; type: in vivo
From the text: Dose formulation preparation for PO: Weight out the required amount of compound 74. Added approximately 70% of 0.5% CMC-Na with stirring, vortexing and sonication to mix well until visually well suspension. Then added the remaining vehicle to target total volume and vortex-mix.
Dose formulation preparation for IV: Weight out the required amount of compound 74. Added appropriate DMSO with sonication until dissolved, then added appropriate HP-β-Cyclodextrin water solution (20%, w/v) with vortexing to mix well.
Species: SD rats (SPF Level); sex: male; source: Sino-British SIPPR/BK Lab Animal Ltd., Shanghai.
The animals that dosed via orally were fasted overnight (10-14 hours) prior to oral administration. Food supply to the animals dosed orally were resumed 4 h post-dose.
Blood samples (approximately 250 μL/sample) were collected via jugular vein at Pre-dose and Post-dose (5 min, 15 min, 30 min, 1 h, 2 h, 4 h, 6 h, 8 h, and 24 h). Blood samples were placed into tubes containing sodium heparin and centrifuged conditions at 8000 rpm for 6 minutes at 2-8° C. to separate plasma from the samples. Plasma sample (50 μL) were transferred to tube, then 250 μL IS solution (200 ng/mL Tolbutamide) was added to it. After vortexing for 1 min and centrifuging for 5 min at 15000 rpm, 200 μL aliquots of supernatant were transferred to 96-well plate for LC-MS/MS analysis. The calibration curve of compound 74 was ranging from 1 to 1000 ng/mL. The LLOQ is 1 ng/mL for plasma.
A non-compartemental module of WinNonlin® Professional 5.2 was used to calculate parameters. The bioavailability was calculated as F %=(Dose(IV)×AUC(0-t)(PO))/(Dose(PO)×AUC(0-t)(IV))×100%.

[2] = Acute toxicity of single oral dose in SD rats; details: for Weight gain rate (%): 14 day compared with 0 day
From the text: Rats were randomly divided into group A1, group B1 and blank control group. Each group has 10 of rats with half male and half female.

hURAT1 = biological target: T1, hURAT1 (Homo sapiens, UniProt Q96S37); assay: Inhibition assay of uric acid transport in HEK293-hURAT1 transfection cell line; type: cell-based; details: 500 nM; HEK293-hURAT1 transfection cell line; 14C-uric acid; average of three tests; 0.5 µM
T1 sequence (Q96S37 1-553): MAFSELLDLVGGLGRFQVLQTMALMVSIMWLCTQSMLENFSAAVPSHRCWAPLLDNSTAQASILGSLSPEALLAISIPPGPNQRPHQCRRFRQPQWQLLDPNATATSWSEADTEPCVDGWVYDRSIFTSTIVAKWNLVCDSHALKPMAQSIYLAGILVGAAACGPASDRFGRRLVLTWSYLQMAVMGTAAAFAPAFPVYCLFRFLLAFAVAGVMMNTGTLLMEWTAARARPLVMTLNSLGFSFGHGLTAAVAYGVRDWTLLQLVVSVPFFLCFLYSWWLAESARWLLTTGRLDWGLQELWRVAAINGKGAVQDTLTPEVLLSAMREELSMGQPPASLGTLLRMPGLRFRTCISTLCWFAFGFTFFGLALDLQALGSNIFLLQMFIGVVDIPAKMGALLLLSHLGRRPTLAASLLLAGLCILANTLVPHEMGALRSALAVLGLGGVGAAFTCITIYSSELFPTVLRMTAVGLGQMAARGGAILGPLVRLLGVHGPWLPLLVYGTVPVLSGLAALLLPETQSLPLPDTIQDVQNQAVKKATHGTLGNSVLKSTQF
Description: 2.1 Construction of a HEK293 stable cell line with high expression of hURAT1: The plasmid pCMV6-hURAT1 was transfected into HEK293 cells, then the stable strain was obtained by the G418 (final concentration 500 μg/mL) resistance screening, which is the high expression of hURAT1 transporter membrane protein.
2.2 To a coated 24-well plate was added 200 μL of 0.1 mg/mL poly-lysine per well and the plate was left overnight. Poly-lysine was removed from wells. The wells were cleaned thoroughly with aseptic water and dried for use.
2.3 To the above coated 24 well plate was added HEK293-hURAT1 stable cells (2×10^5 cells per well). The cells was cultured at 37° C. under 5% CO2 for 3 days.
The solution was fully mixed to give HBSS buffer (pH value: 7.4). The buffer was stored at −20° C.
2.5 The HBSS buffer was warmed to 37° C. in a water bath. Washed cells with HBSS twice, added 160 μL of HBSS and 20 μL test compound per well. The final concentration of tested compound per well is 500 nM. The blank control well contains only 180 μL of HBSS without tested compound. The plate was placed at room temperature for 30 min.
2.6 To each well was added 20 μL of 50 μM ^14C-Uric acid. The plate was placed at room temperature for 20 min.
2.7 The solution in each well was removed and the cells in each well were washed with pre-cooled HBSS buffer. To each well was added 0.2 M NaOH to dissolve the cells. The solution containing cell fragments was collected and the right amount of scintillation liquid was added.
The formula for calculating the inhibitory rate of uric acid transport for compounds was shown as below: […]

[3] = IV 1 mg/kg, individual rats 201-203, 1 mg/kg
[4] = PO 10 mg/kg, individual rats 101-103, 10 mg/kg
[5] = female SD rats (n=5), 74 at 5.0 g/kg, BBR at 0.14 g/kg
[6] = male SD rats (n=5), 74 at 5.0 g/kg, BBR at 0.14 g/kg

Compound: CCc1nc2ccccn2c1C(=O)c1cc(Br)c(O)c(C#N)c1 [Compound 74, 3-bromo-5-(2-ethylimidazo[1,2-a]pyridine-3-carbonyl)-2-hydroxybenzonitrile hydrogen chloride]
- Clz ([1]; IV 1 mg/kg, Mean of 3 rats): 1.803 mL/min/kg
- AUC(0-t) [1, 3]: 9076.84 ng·h/mL and 8847.27 ng·h/mL
- Clz [1, 3]: 1.8372 mL/min/kg and 1.761 mL/min/kg and 1.8108 mL/min/kg
- Cmax [1, 3]: 6705.53 ng/mL and 6885.21 ng/mL
- MRT(0-∞) [1, 3]: 5.60 h
- Vz [1, 3]: 0.91779 L/kg and 0.93449 L/kg
- t1/2 [1, 3]: 6.00 h
- F (%) ([1]; PO 10 mg/kg vs IV 1 mg/kg, from AUC(0-t), individual rats 101-103): 108.04% and 100.28%
- AUC(0-t) [1, 4]: 96188.83 ng·h/mL and 89284.20 ng·h/mL
- Cmax [1, 4]: 6976.14 ng/mL and 8251.74 ng/mL
- MRT(0-∞) [1, 4]: 6.80 h and 6.00 h
- Tmax [1, 4]: 2.00 h and 6.00 h
- t1/2 [1, 4]: 3.00 h and 2.70 h
- half-life ([1]; male, SD, rat, plasma, iv, 1 mg/kg, IV 1 mg/kg, Mean of 3 rats): 5.8 h
- AUC(0-t) ([1]; male, SD, rat, plasma, iv, 1 mg/kg, IV 1 mg/kg, Mean of 3 rats, read-out: AUC(0-t)): 8900 ng·h/mL
- Cmax ([1]; male, SD, rat, plasma, iv, 1 mg/kg, IV 1 mg/kg, Mean of 3 rats, read-out: Cmax): 6360 ng/mL
- MRT inf ([1]; male, SD, rat, plasma, iv, 1 mg/kg, IV 1 mg/kg, Mean of 3 rats, read-out: MRT(0-∞)): 5.5 h
- Tmax ([1]; male, SD, rat, plasma, iv, 1 mg/kg, IV 1 mg/kg, Mean of 3 rats, read-out: Tmax): 0.1 h
- Vd ([1]; male, SD, rat, plasma, iv, 1 mg/kg, IV 1 mg/kg, Mean of 3 rats, read-out: Vz): 0.904 L/kg
- half-life ([1]; male, SD, rat, plasma, iv, 1 mg/kg, IV 1 mg/kg, individual rats 201-203): 5.4 h
- AUC(0-t) ([1]; male, SD, rat, plasma, iv, 1 mg/kg, IV 1 mg/kg, individual rats 201-203, read-out: AUC(0-t)): 8790 ng·h/mL
- Cmax ([1]; male, SD, rat, plasma, iv, 1 mg/kg, IV 1 mg/kg, individual rats 201-203, read-out: Cmax): 5490 ng/mL
- MRT inf ([1]; male, SD, rat, plasma, iv, 1 mg/kg, IV 1 mg/kg, individual rats 201-203, read-out: MRT(0-∞)): 5.4 h
- Tmax ([1]; male, SD, rat, plasma, iv, 1 mg/kg, IV 1 mg/kg, individual rats 201-203, read-out: Tmax): 0.1 h
- Vd ([1]; male, SD, rat, plasma, iv, 1 mg/kg, IV 1 mg/kg, individual rats 201-203, read-out: Vz): 0.859 L/kg
- bioavailability ([1]; male, SD, rat, plasma, po, 10 mg/kg, PO 10 mg/kg vs IV 1 mg/kg, from AUC(0-t), Mean of 3 rats): 103%
- bioavailability ([1]; male, SD, rat, plasma, po, 10 mg/kg, PO 10 mg/kg vs IV 1 mg/kg, from AUC(0-t), individual rats 101-103): 101%
- half-life ([1]; male, SD, rat, plasma, po, 10 mg/kg, PO 10 mg/kg, Mean of 3 rats): 2.9 h
- AUC(0-t) ([1]; male, SD, rat, plasma, po, 10 mg/kg, PO 10 mg/kg, Mean of 3 rats, read-out: AUC(0-t)): 91800 ng·h/mL
- Cmax ([1]; male, SD, rat, plasma, po, 10 mg/kg, PO 10 mg/kg, Mean of 3 rats, read-out: Cmax): 8140 ng/mL
- MRT inf ([1]; male, SD, rat, plasma, po, 10 mg/kg, PO 10 mg/kg, Mean of 3 rats, read-out: MRT(0-∞)): 6.3 h
- Tmax ([1]; male, SD, rat, plasma, po, 10 mg/kg, PO 10 mg/kg, Mean of 3 rats, read-out: Tmax): 3.3 h
- half-life ([1]; male, SD, rat, plasma, po, 10 mg/kg, PO 10 mg/kg, individual rats 101-103): 2.9 h
- AUC(0-t) ([1]; male, SD, rat, plasma, po, 10 mg/kg, PO 10 mg/kg, individual rats 101-103, read-out: AUC(0-t)): 89900 ng·h/mL
- Cmax ([1]; male, SD, rat, plasma, po, 10 mg/kg, PO 10 mg/kg, individual rats 101-103, read-out: Cmax): 9210 ng/mL
- MRT inf ([1]; male, SD, rat, plasma, po, 10 mg/kg, PO 10 mg/kg, individual rats 101-103, read-out: MRT(0-∞)): 5.9 h
- Death rate ([2]; SD rats, single oral dose, 74 at 5.0 g/kg, BBR at 0.14 g/kg, 10 rats per group, 14 days observation): 0/10
- Weight 0 day (X ± SD) [2, 5]: 135.94 ± 5.62 g
- Weight 7 day (X ± SD) [2, 5]: 183.02 ± 11.10 g
- Weight gain rate (%) ([2]; female SD rats (n=5)): +53.0%
- Weight 14 day (X ± SD) [2, 5]: 208.04 ± 11.90 g
- Weight 0 day (X ± SD) [2, 6]: 149.06 ± 5.95 g
- Weight 7 day (X ± SD) [2, 6]: 204.04 ± 21.69 g
- Weight gain rate (%) ([2]; male SD rats (n=5)): +73.2%
- Weight 14 day (X ± SD) [2, 6]: 258.12 ± 17.65 g
- death of rats in pre-experiment of acute toxicity ([2]; pre-experiment, compound 74 at 5 g/kg (highest dose), benzbromarone at 0.14 g/kg): did not cause death
- Inhibitory rates of uric acid transport, ±SD (%) (hURAT1): 62.75 ± 5.73%
